Patent US20240217990A1 (Gilead Sciences, Inc., priority 2021, published 2024)

Columns and labels:
TLR7 = biological target: T1, TLR7 (Homo sapiens, UniProt Q9NYK1); assay: TLR7 human PBMC cell-based assay (antagonist, GS-986 stimulated cytokine release); details: human PBMCs; TLR7 agonist GS-986 400 nM, 6 hours; cytokines (IL-6 and IFNα) in supernatant; read-out: TLR-7 EC50
T1 construct: Human peripheral blood mononuclear cells (PBMCs) consist of lymphocytes, monocytes and dendritic cells that express TLR7, TLR8 and TLR9; endogenous in cells; host or cells: cryopreserved human PBMCs from healthy donors
T1 sequence (Q9NYK1 27-1049): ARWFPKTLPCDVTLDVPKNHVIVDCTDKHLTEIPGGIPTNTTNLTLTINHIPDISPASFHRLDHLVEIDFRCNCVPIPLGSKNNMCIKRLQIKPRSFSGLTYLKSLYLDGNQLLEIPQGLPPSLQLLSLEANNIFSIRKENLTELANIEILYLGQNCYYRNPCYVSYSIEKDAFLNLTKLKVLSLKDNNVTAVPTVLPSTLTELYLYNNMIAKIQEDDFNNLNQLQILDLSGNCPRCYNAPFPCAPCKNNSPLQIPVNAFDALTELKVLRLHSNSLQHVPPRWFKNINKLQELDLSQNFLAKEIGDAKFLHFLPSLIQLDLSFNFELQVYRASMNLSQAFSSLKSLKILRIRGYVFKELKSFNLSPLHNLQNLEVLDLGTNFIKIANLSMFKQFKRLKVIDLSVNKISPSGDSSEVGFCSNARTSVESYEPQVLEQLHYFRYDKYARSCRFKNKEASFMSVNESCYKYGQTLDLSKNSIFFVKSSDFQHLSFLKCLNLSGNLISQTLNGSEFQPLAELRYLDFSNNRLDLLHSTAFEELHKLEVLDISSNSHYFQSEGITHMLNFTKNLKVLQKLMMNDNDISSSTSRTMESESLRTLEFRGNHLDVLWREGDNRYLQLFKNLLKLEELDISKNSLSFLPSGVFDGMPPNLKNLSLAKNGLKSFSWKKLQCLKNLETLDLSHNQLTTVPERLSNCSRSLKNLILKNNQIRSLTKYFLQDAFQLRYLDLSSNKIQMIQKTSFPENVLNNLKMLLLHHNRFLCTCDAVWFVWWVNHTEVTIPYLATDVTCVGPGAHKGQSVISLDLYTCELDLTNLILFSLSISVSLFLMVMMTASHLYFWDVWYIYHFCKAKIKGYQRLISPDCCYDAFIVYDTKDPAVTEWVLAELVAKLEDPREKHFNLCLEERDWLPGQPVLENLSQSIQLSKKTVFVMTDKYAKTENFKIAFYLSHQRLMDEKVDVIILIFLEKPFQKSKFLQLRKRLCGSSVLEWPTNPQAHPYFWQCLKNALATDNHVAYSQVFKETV
Source text: (§1) Human peripheral blood mononuclear cells (PBMCs) consist of lymphocytes, monocytes and dendritic cells that express TLR7, TLR8 and TLR9. These cells respond to TLR7, TLR8 and TLR9 ligand stimulation and produce cytokines and chemokines in vitro and in vivo. Human PBMCs are therefore suitable to be used in a cell-based assay to assess the in vitro potency of a TLR 7, 8, and/or 9 antagonist. The result is expected to be more translatable to the pharmacodynamics response in vivo than cell line-based assays.
Cryopreserved human PBMCs from healthy donors were thawed and resuspended in RPMI-1640 media with L-glutamine (Corning) supplemented with 10% Fetal Bovine Serum (Hyclone) and 1× Penicillin-Streptomycin (Corning). After counting, the cell density was adjusted to 2 million cells/ml and incubated for 1 hour at 37° C., 5% CO2 for recovery. Following the recovery, the cells were plated by adding 50 μl per well (100,000 cells) to 384-well cell culture plates (Greiner) containing 250 nl of test antagonists in 100% DMSO per well, in a 10 points dose response in quadruplicates. PBMCs were incubated in the presence of test antagonists for one hour at 37° C., 5% CO2 before being stimulated with a TLR7 or TLR9agonist. GS-986 (Gilead Sciences) was used as the TLR7 agonist at a final concentration of 400 nM. ODN-2216 (InvivoGen) was used as the TLR9 agonist at a final concentration of 3 μM. PBMCs were incubated in the presence of the test antagonist and the TLR7 (or TLR9) agonist for an additional 6 hours at 37° C., 5% CO2. At the end of the incubation, the cell culture plates were centrifuged at 500 g for 5 min, and the cell culture supernatant was collected. The level of cytokines (IL-6 and IFNα) in the supernatant was measured by electrochemiluminescence immunoassays (Mesoscale Discovery) following manufacturer's recommended protocols. The level of cytokine measured was plotted against the test antagonist concentration and fitted to a sigmoidal function to determine the EC50, which are shown below in Table 11.

TLR8 = biological target: T2, TLR8 (Homo sapiens, UniProt Q9NR97); assay: TLR8 human PBMC cell-based assay (antagonist, Compound A stimulated cytokine release); details: human PBMCs; TLR8 agonist Compound A 800 nM, 6 hours; cytokines (TNFa and IL 12p40) in supernatant; read-out: TLR-8 EC50
T2 construct: Human peripheral blood mononuclear cells (PBMCs) consist of lymphocytes, monocytes and dendritic cells that express TLR7, TLR8 and TLR9; endogenous in cells; host or cells: cryopreserved human PBMCs from healthy donors
T2 sequence (Q9NR97 27-1041): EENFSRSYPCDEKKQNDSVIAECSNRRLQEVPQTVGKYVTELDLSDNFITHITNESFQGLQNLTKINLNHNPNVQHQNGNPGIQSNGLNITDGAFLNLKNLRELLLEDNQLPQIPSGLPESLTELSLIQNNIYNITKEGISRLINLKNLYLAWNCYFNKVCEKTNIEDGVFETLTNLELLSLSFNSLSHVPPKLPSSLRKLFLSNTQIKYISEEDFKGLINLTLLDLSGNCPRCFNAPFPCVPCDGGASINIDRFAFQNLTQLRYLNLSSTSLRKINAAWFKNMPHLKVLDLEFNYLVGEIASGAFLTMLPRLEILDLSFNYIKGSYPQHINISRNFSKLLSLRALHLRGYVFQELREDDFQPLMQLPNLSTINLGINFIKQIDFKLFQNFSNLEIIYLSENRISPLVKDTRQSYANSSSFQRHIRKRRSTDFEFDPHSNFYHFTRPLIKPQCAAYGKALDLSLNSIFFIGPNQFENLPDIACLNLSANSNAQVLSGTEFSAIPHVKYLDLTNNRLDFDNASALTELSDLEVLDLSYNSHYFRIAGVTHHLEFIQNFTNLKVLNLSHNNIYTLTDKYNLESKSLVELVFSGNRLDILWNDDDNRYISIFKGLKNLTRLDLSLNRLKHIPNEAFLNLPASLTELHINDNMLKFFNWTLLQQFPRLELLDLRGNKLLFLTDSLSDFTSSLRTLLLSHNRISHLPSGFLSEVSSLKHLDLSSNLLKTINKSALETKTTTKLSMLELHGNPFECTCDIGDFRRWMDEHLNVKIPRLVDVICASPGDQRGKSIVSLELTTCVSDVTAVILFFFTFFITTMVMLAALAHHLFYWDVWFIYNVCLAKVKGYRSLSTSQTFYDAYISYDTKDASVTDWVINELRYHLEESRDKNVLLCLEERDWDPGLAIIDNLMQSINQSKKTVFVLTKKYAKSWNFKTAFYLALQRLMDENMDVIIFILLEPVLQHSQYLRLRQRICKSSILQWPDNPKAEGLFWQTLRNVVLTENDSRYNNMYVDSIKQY
Source text: as §1
Cryopreserved human PBMCs from healthy donors were thawed and resuspended in RPMI-1640 media with L-glutamine (Corning) supplemented with 10% Fetal Bovine Serum (Hyclone) and 1X Penicillin-Streptomycin (Corning). After counting, the cell density was adjusted to 2 million cells/ml and incubated for 1 hour at 37° C., 5% CO2 for recovery. Following the recovery, the cells were plated by adding 50 μl per well (100,000 cells) to 384-well cell culture plates (Greiner) containing 250 nl of test antagonists in 100% DMSO per well, in a 10 points dose response in quadruplicates. PBMCs were incubated in the presence of antagonists for one hour at 37° C., 5% CO2 before being stimulated with TLR8 agonist. Compound A (Gilead Sciences, U.S. Pat. No. 10,285,990) was used as the TLR8 agonist at a final concentration of 800 nM. PBMCs were incubated in the presence of antagonist and the TLR8 agonist for an additional 6 hours at 37° C., 5% CO2. At the end of the incubation, the cell culture plates were centrifuged at 500 g for 5 min, and the cell culture supernatant was collected. The level of cytokines (TNFa and IL 12p40) in the supernatant was measured by electrochemiluminescence immunoassays (Mesoscale Discovery) following manufacturer's recommended protocols. The level of cytokine measured was plotted against the antagonist concentration and fitted to a sigmoidal function to determine the EC50, which are shown below in Table 11.

SMILES | EC50 (TLR7) | EC50 (TLR8)
Cc1cc(-c2[nH]c3cc(C(=O)N(C)C4CCN(C(=O)CN(C)C)CC4)sc3c2C(C)C)cn2ncnc12 [Example 180] | 0.7 nM | 11.5 nM
Cc1cc(-c2[nH]c3cc(C4CCN(Cc5ccn(C)n5)CC4)sc3c2C(C)C)cn2ncnc12 [Example 194] | 4.5 nM | 0.6 nM
Cc1cc(-c2[nH]c3cc(C(=O)N(C)C4CCC(N5CC(OC(F)(F)F)C5)CC4)sc3c2C(C)C)cn2ncnc12 (stereo not shown) [Example 251] | 59.6 nM | 105 nM
Cc1cc(-c2[nH]c3cc(C(=O)N4CCNC(C(F)F)C4)sc3c2C(C)C)cn2ncnc12 (stereo not shown) [Example 130] | 40.7 nM | 28.6 nM
Cc1cc(-c2[nH]c3cc(C4CC(C)(C)NC(C)(C)C4)sc3c2C(C)C)cn2ncnc12 [Example 294] | 49.5 nM | 19.5 nM
Cc1cc(-c2[nH]c3cc(C4CCN(CC(N)=O)CC4(C)C)sc3c2C(C)C)cn2ncnc12 (stereo not shown) [Example 298] | 4.02 nM | 17.7 nM
Cc1cc(-c2[nH]c3cc(C4CCN(C(=O)[C@H]5CCCN5C)CC4)sc3c2C(C)C)cn2ncnc12 [Example 199] | 3.9 nM | 5.3 nM
Cc1cc(-c2[nH]c3cc(C(=O)N4CCCCC4CN(C)C)sc3c2C(C)C)cn2ncnc12 (stereo not shown) [Example 107] | 3.9 nM | 12.8 nM
Cc1c(-c2[nH]c3cc(C(=O)N(C)[C@@H]4CNC[C@H](C(F)(F)F)C4)sc3c2C(C)C)cn2ncnc2c1C [Example 273, 5-(7,8-dimethyl-[1,2,4]triazolo[1,5-a]pyridin-6-yl)-6-isopropyl-N-methyl-N-((3S,5R)-5-(trifluoromethyl)piperidin-3-yl)-4H-thieno[3,2-b]pyrrole-2-carboxamide] | 9.8 nM | 9.7 nM
Cc1cc(-c2[nH]c3cc(C(=O)N(C)C4CCN(C5COC5)CC4)sc3c2C(C)C)cn2ncnc12 [Example 139] | 15 nM | 10.8 nM

More lines, in order of falling EC50 (TLR7), values ahead:

EC50 (TLR7) | EC50 (TLR8) | SMILES
53.4 nM | 191 nM | Cc1cc(-c2[nH]c3cc(C(=O)N(C)C4CCC(N5CC(F)(F)C5)CC4)sc3c2C(C)C)cn2ncnc12 (stereo not shown) [Example 246, N-(4-(3,3-difluoroazetidin-1-yl)cyclohexyl)-6-isopropyl-N-methyl-5-(8-methyl-[1,2,4]triazolo[1,5-a]pyridin-6-yl)-4H-thieno[3,2-b]pyrrole-2-carboxamide]
45.2 nM | 35 nM | Cc1cc(-c2[nH]c3cc(C(=O)N(C)CCN4CCOCC4)sc3c2C(C)C)cn2ncnc12 [Example 95]
26 nM | 81 nM | Cc1cc(-c2[nH]c3cc(C(=O)N4CCCC5NCCC54)sc3c2C(C)C)cc(C)n1 (stereo not shown) [Example 28]
24.4 nM | 9.2 nM | Cc1cc(-c2[nH]c3cc(C(=O)N4CCN(CCO)CC4)sc3c2C(C)C)cn2ncnc12 [Example 69]
16.6 nM | 21.1 nM | Cc1cc(-c2[nH]c3cc(C(=O)N(C)[C@H]4CNC[C@@H]4F)sc3c2C(C)C)cn2ncnc12 [Example 58]
9.6 nM | 12.4 nM | Cc1cc(-c2[nH]c3cc(C4CCNC4)sc3c2C(C)C)cn2ncnc12 (stereo not shown) [Example 161]
8 nM | 4.8 nM | Cc1cc(-c2[nH]c3cc(-c4cnc5c(c4)CN(CC(N)=O)CC5)sc3c2C(C)C)cn2ncnc12 [Example 173]
4.6 nM | 16.3 nM | Cc1cc(-c2[nH]c3cc(C(=O)N4CC[C@H](C)[C@H](N)C4)sc3c2C(C)C)cn2ncnc12 [Example 105]
1.6 nM | 14 nM | Cc1cc(-c2[nH]c3cc(C(=O)N(C)[C@H]4[C@@H]5CNC[C@@H]54)sc3c2C(C)C)cn2ncnc12 [Example 75]
1.3 nM | 0.3 nM | Cc1cc(-c2[nH]c3cc(-c4ccc5c(c4)CN(CCO)CC5)sc3c2C(C)C)cn2ncnc12 [Example 188]
1.2 nM | 9 nM | Cc1cc(-c2[nH]c3cc(C(=O)N4CCC5(CCNC5)CC4)sc3c2C(C)C)cn2ncnc12 [Example 121]
0.6 nM | 2.9 nM | Cc1cc(-c2[nH]c3cc(-c4ccc(N5CCNCC5)cc4)sc3c2C(C)C)cn2ncnc12 [Example 214]
0.5 nM | 10.2 nM | Cc1cc(-c2[nH]c3cc(C(=O)N(C)C4CCNCC4)sc3c2C(C)C)cn2ncnc12 [Example 56, 6-isopropyl-N-methyl-5-(8-methyl-[1,2,4]triazolo[1,5-a]pyridin-6-yl)-N-(4-piperidyl)-4H-thieno[3,2-b]pyrrole-2-carboxamide]
